Test: xn = mol fraction of the nth substance listed
Settings: 100 kPa

Cc1ccccc1 + CCCC[n+]1ccccc1.O=S(=O)([N-]S(=O)(=O)C(F)(F)F)C(F)(F)F
x1 = 1
Settings | viscosity [mPa·s]
293.15 K | 0.598
298.15 K | 0.569
303.15 K | 0.539
308.15 K | 0.509
313.15 K | 0.485

Cc1ccccc1 + CCCC[N+]1(C)CCCC1.O=S(=O)([N-]S(=O)(=O)C(F)(F)F)C(F)(F)F
x1 = 1
Settings | viscosity [mPa·s]
293.15 K | 0.598
298.15 K | 0.569
303.15 K | 0.539
313.15 K | 0.485

CCCC[n+]1ccccc1.O=S(=O)([N-]S(=O)(=O)C(F)(F)F)C(F)(F)F + Cc1ccccc1
viscosity [mPa·s]
Settings | x2 = 0 | x2 = 0.0994 | x2 = 0.2022 | x2 = 0.2939 | x2 = 0.3972 | x2 = 0.5025 | x2 = 0.6068 | x2 = 0.7033
293.15 K | 68.9 | 54.2 | 41.67 | 31.52 | – | 15.1 | – | 6.11
298.15 K | – | 42.92 | 33.54 | 25.9 | 19 | – | 9.09 | 5.53
303.15 K | 41.94 | 34.61 | 27.6 | – | 16.23 | 11.99 | 8.21 | 5.19
308.15 K | 33.75 | 28.44 | 22.89 | 18.36 | – | – | 7.48 | 4.96
313.15 K | 27.63 | 23.67 | 19.28 | 15.83 | – | 9.23 | – | 4.293

CCCC[N+]1(C)CCCC1.O=S(=O)([N-]S(=O)(=O)C(F)(F)F)C(F)(F)F + Cc1ccccc1
viscosity [mPa·s]
Settings | x2 = 0 | x2 = 0.1093 | x2 = 0.1978 | x2 = 0.3041 | x2 = 0.3965 | x2 = 0.5054 | x2 = 0.6027 | x2 = 0.7066
293.15 K | 90.2 | 66.9 | 51.5 | 36.61 | 26 | 17.04 | 11.02 | 6.26
298.15 K | – | 52.3 | 41.5 | 29.96 | 21.88 | – | – | 5.73
303.15 K | 56.2 | 42.87 | 34.07 | – | – | 13.06 | 9.11 | 5.28
308.15 K | 45.8 | 34.88 | 28.4 | 21.58 | 16.48 | 11.86 | 8.4 | 5.05
313.15 K | – | 29.43 | 24.08 | – | – | 10.63 | 7.58 | –

Cc1ccccc1 + CCCCCC[N+]1(C)CCCC1.O=S(=O)([N-]S(=O)(=O)C(F)(F)F)C(F)(F)F
x1 = 1
Settings | viscosity [mPa·s]
293.15 K | 0.598
298.15 K | 0.569
303.15 K | 0.539
313.15 K | 0.495

CCCCCC[N+]1(C)CCCC1.O=S(=O)([N-]S(=O)(=O)C(F)(F)F)C(F)(F)F + Cc1ccccc1
viscosity [mPa·s]
Settings | x2 = 0 | x2 = 0.0942 | x2 = 0.1943 | x2 = 0.29 | x2 = 0.3938 | x2 = 0.493 | x2 = 0.5961 | x2 = 0.6986 | x2 = 0.7993
293.15 K | 136.2 | 103.1 | 77.3 | 55.6 | – | 24.39 | 14.74 | 8.36 | –
298.15 K | 102.8 | 79.3 | 61.2 | 44.91 | 30.92 | 20.68 | 12.89 | 7.61 | 3.838
303.15 K | 79.6 | 62.3 | 48 | 36.7 | 25.95 | 17.85 | – | 6.93 | 3.477
308.15 K | 63.1 | 50.2 | 39.6 | – | 22.17 | 15.66 | 10.64 | 6.49 | –
313.15 K | – | 40.96 | 32.72 | 25.67 | 19.3 | 14.05 | 9.54 | 5.88 | 2.944

Source: a compilation of properties of binary mixtures (doi:10.1016/j.molliq.2020.112754)
